molecular target: T1, human CRTH2 (Homo sapiens, UniProt Q9Y5Y4); test: CRTH-2 binding assay (scintillation proximity assay, inhibition of 3H-PGD2 binding); parameters: expressed in transfected cells; host or cells: HEK 293EBNA-hCRTH2 (membrane preparation); conditions: inhibition of 3H-PGD2 (3.6 nM) binding to HEK 293EBNA-hCRTH2 membranes; Ki calculated from IC50
T1 sequence (Q9Y5Y4 1-395): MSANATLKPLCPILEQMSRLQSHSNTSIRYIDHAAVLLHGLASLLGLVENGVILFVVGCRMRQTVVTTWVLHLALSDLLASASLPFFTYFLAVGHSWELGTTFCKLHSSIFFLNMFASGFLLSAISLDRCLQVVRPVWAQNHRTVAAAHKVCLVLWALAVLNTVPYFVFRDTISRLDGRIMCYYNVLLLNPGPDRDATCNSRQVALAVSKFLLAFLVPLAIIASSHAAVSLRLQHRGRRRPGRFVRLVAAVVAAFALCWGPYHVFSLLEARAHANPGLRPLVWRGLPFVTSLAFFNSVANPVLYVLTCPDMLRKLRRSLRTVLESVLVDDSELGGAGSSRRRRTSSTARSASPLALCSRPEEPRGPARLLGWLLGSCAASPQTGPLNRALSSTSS
Method: A CRTH2 binding assay was developed to measure the ability of compounds to inhibit the binding of PGD2 to human CRTH2 using a scintillation proximity assay.
Membranes containing hCRTH2 receptors were prepared from HEK 293EBNA-hCRTH2 cells (a HEK 293EBNA cell line stably expressing human CRTH2). The cells were grown to confluency, harvested and washed with PBS. The cells were resuspended in 10 mM Hepes pH 7.4, 1 mM EDTA and protease inhibitors and incubated for 30 min on ice. The cells were homogenized and centrifuged for 10 min at 1000×g. The supernate was centrifuged for 30 min at 100,000×g and the membrane pellet was then resusupended in 10 mM Hepes pH 7.4 and 1 mM EDTA. The protein concentration of the membrane preparation was determined by Bradford assay (Bio-Rad).
The ability of compounds to inhibit the interaction of PGD2 to human CRTH2 was determined at seven compound concentrations. Compounds were serially diluted in DMSO then diluted into CRTH2 buffer without glycerol (10 mM Hepes pH 7.4, 1 mM EDTA, 10 mM MnCl2) to six times the final desired concentration. 20 μL of the diluted compounds were transferred into non-surface binding 96 well plates (Corning). Each concentration was done in triplicate. In addition to test compounds, each plate contained 12 control wells. Six of these wells contained 20 μL of CRTH2 buffer without glycerol. These wells were used to measure total binding. Six wells contained 20 μL of CRTH2 buffer without glycerol plus 1.5 mM indomethacin. These wells were used to measure non-specific binding. Next, HEK 293EBNA-hCRTH2 membranes were resuspended in CRTH2 buffer with glycerol (10 mM Hepes pH 7.4, 1 mM EDTA, 10 mM MnCl2, 25% glycerol) so that the final concentration was approximately 20 μg protein/100 μL. Polylysine coated yttrium silicate SPA beads (Amershamn) were added to the membrane mix to a concentration of 0.4 mg/100 μL and finally ^3H-PGD2 was added to the membrane/SPA bead mix to 3.6 nM. 100 μL of the membrane/SPA bead/^3H-PGD2 mix was added to each well of the non-surface binding plates containing the diluted compound plus controls. The plates were incubated for 2 hours at room temperature with shaking and then the plates were counted on a Microbeta scintillation counter (Perkin Elmer) for 1 min per well.
IC50 values were determined from the experimental results by nonlinear regression using Prism 4.0 software. The IC50 values were then used in conjunction with the […] for hCRTH2 and the ^3H-PGD2 concentration used in the experiment to calculate the Ki for each compound.

SMILES | Ki
COc1ccc2c(c1)c(C1c3ccccc3S(=O)(=O)N1Cc1ccc(F)cc1)cn2CC(=O)O (stereo not shown) [Example 54, {3-[2-(4-Fluoro-benzyl)-1,1-dioxo-2,3-dihydro-1H-1λ^6-benzo[d]isothiazol-3-yl]-5-methoxy-indol-1-yl}-acetic acid] | < 1000 nM
COc1ccc2c(c1)c(C1c3ccccc3S(=O)(=O)N1CCc1ccccc1)cn2CC(=O)O (stereo not shown) [Example 55, [3-(1,1-Dioxo-2-phenethyl-2,3-dihydro-1H-1λ^6-benzo[d]isothiazol-3-yl)-5-methoxy-indol-1-yl]-acetic acid] | < 10000 nM
COc1ccc2c(c1)c(C1c3ccccc3S(=O)(=O)N1C(C)Cc1ccccc1)cn2CC(=O)O (stereo not shown) [Example 56, {5-Methoxy-3-[2-(1-methyl-2-phenyl-ethyl)-1,1-dioxo-2,3-dihydro-1H-1λ^6-benzo[d]isothiazol-3-yl]-indol-1-yl}-acetic acid] | < 10000 nM
COc1ccc2c(c1)c(C1c3ccccc3S(=O)(=O)N1Cc1ccc(C#N)cc1)cn2CC(=O)O (stereo not shown) [Example 57, {3-[2-(4-Cyano-benzyl)-1,1-dioxo-2,3-dihydro-1H-1λ^6-benzo[d]isothiazol-3-yl]-5-methoxy-indol-1-yl}-acetic acid] | < 10000 nM
C=CCN1C(c2c(C)n(CC(=O)O)c3ccc(Cl)cc23)c2ccccc2S1(=O)=O (stereo not shown) [Example 58, [3-(2-Allyl-1,1-dioxo-2,3-dihydro-1H-1λ^6-benzo[d]isothiazol-3-yl)-5-chloro-2-methyl-indol-1-yl]-acetic acid] | < 1000 nM
CCOC(=O)CN1C(c2c(C)n(CC(=O)O)c3ccc(Cl)cc23)c2ccccc2S1(=O)=O (stereo not shown) [Example 59, [5-Chloro-3-(2-ethoxycarbonylmethyl-1,1-dioxo-2,3-dihydro-1H-1 λ^6-benzo[d]isothiazol-3-yl)-2-methyl-indol-1-yl]-acetic acid] | < 100 nM
Cc1c(C2c3ccccc3S(=O)(=O)N2Cc2ccc(F)cc2)c2cc(Cl)ccc2n1CC(=O)O (stereo not shown) [Example 60, {5-Chloro-3-[2-(4-fluoro-benzyl)-1,1-dioxo-2,3-dihydro-1H-1λ^6-benzo[d]isothiazol-3-yl]-2-methyl-indol-1-yl}-acetic acid] | < 1000 nM
Cc1c(C2c3ccc(F)cc3S(=O)(=O)N2Cc2cccc(F)c2)c2ccccc2n1CC(=O)O (stereo not shown) [Example 63, {3-[6-Fluoro-2-(3-fluoro-benzyl)-1,1-dioxo-2,3-dihydro-1H-1λ^6benzo[d]isothiazol-3-yl]-2-methyl-indol-1-yl}-acetic acid] | < 1000 nM
Cc1c(C2c3ccc(F)cc3S(=O)(=O)N2CCc2ccccc2)c2ccccc2n1CC(=O)O (stereo not shown) [Example 64, [3-(6-Fluoro-1,1-dioxo-2-phenethyl-2,3-dihydro-1H-1λ^6-benzo[d]isothiazol-3-yl)-2-methyl-indol-1-yl]-acetic acid] | < 100 nM
Cc1noc(C)c1CN1C(C)(c2c(C)n(CC(=O)O)c3ccccc23)c2ccccc2S1(=O)=O (stereo not shown) [Example 65, {3-[2-(3,5-Dimethyl-isoxazol-4-ylmethyl)-3-methyl-1,1-dioxo-2,3-dihydro-1H-1λ^6-benzo[d]isothiazol-3-yl]-2-methyl-indol-1-yl}-acetic acid] | < 100 nM
Cc1c(C2(C)c3ccccc3S(=O)(=O)N2Cc2cccc(F)c2)c2ccccc2n1CC(=O)O (stereo not shown) [Example 66, {3-[2-(3-Fluoro-benzyl)-3-methyl-1,1-dioxo-2,3-dihydro-1H-1λ^6-benzo[d]isothiazol-3-yl]-2-methyl-indol-1-yl}-acetic acid] | < 1000 nM
Cc1c(C2(C)c3ccccc3S(=O)(=O)N2CCOc2ccccc2)c2ccccc2n1CC(=O)O (stereo not shown) [Example 67, {2-Methyl-3-[3-methyl-1,1-dioxo-2-(2-phenoxy-ethyl)-2,3-dihydro-1H-1-benzo[d]isothiazol-3-yl]-indol-1-yl}-acetic acid] | < 1000 nM
Cc1noc(C)c1CN1C(=O)c2ccccc2C1c1c(C)n(CC(=O)O)c2ccccc12 (stereo not shown) [Example 68, {3-[2-(3,5-Dimethyl-isoxazol-4-ylmethyl)-3-oxo-2,3-dihydro-1H-isoindol-1-yl]-2-methyl-indol-1-yl}-acetic acid] | < 1000 nM
Cc1noc(C)c1CN1C(c2c(C)n(CC(=O)O)c3ccccc23)CCS1(=O)=O (stereo not shown) [Example 69, {3-[2-(3,5-Dimethyl-isoxazol-4-ylmethyl)-1,1-dioxo-λ^6-isothiazolidin-3-yl]-2-methyl-indol-1-yl}-acetic acid] | < 100 nM
Cc1c(C2=NN(Cc3ccccc3)C(=O)C3CC=CCC23)c2ccccc2n1CC(=O)O (stereo not shown) [Example 71, [3-(3-Benzyl-4-oxo-3,4,4a,5,8,8a-hexahydro-phthalazin-1-yl)-2-methyl-indol-1-yl]-acetic acid] | < 1000 nM
Cc1c(C2=NN(Cc3ccccc3)C(=O)C(C)(C)C2)c2cc(Cl)ccc2n1CC(=O)O [Example 73, [3-(1-Benzyl-5,5-dimethyl-6-oxo-1,4,5,6-tetrahydro-pyridazin-3-yl)-5-chloro-2-methyl-indol-1-yl]-acetic acid] | < 100 nM
Cc1c(C2c3ccccc3S(=O)(=O)N2c2ccccc2)c2ccccc2n1CC(=O)O (stereo not shown) [Example 74, [3-(1,1-Dioxo-2-phenyl-2,3-dihydro-1H-1λ^6-benzo[d]isothiazol-3-yl)-2-methyl-indol-1-yl]-acetic acid] | < 1000 nM
Cc1c(C2=NN(Cc3ccccc3)S(=O)(=O)c3ccccc32)c2cc(F)ccc2n1CC(=O)O [Example 75, [3-(2-Benzyl-1,1-dioxo-1,2-dihydro-1λ^6-benzo[e][1,2,3]thiadiazin-4-yl)-5-fluoro-2-methyl-indol-1-yl]-acetic acid] | < 1000 nM
Cc1c(C2=NN(Cc3ccccc3Cl)S(=O)(=O)c3ccccc32)c2cc(F)ccc2n1CC(=O)O [Example 76, {3-[2-(2-Chloro-benzyl)-1,1-dioxo-1,2-dihydro-1λ^6-benzo[e][1,2,3]thiadiazin-4-yl]-5-fluoro-2-methyl-indol-1-yl}-acetic acid] | < 100 nM
Cc1c(C2=NN(Cc3cccc(Cl)c3)S(=O)(=O)c3ccccc32)c2cc(F)ccc2n1CC(=O)O [Example 77, {3-[2-(3-Chloro-benzyl)-1,1-dioxo-1,2-dihydro-1λ^6-benzo[e][1,2,3]thiadiazrn-4-yl]-5-fluoro-2-methyl-indol-1-yl}-acetic acid] | < 1000 nM
Cc1c(C2=NN(Cc3ccc(Cl)cc3)S(=O)(=O)c3ccccc32)c2cc(F)ccc2n1CC(=O)O [Example 78, {3-[2-(4-Chloro-benzyl)-1,1-dioxo-1,2-dihydro-1λ^6-benzo[e][1,2,3]thiadiazin-4-yl]-5-fluoro-2-methyl-indol-1-yl}-acetic acid] | < 1000 nM
COc1cccc(CN2N=C(c3c(C)n(CC(=O)O)c4ccc(F)cc34)c3ccccc3S2(=O)=O)c1 [Example 79, {3-[2-(3-Methoxy-benzyl)-1,1-dioxo-1,2-dihydro-1λ^6-benzo[e][1,2,3]thiadiazin-4-yl]-5-fluoro-2-methyl-indol-1-yl}-acetic acid] | < 1000 nM
COc1ccc(CN2N=C(c3c(C)n(CC(=O)O)c4ccc(F)cc34)c3ccccc3S2(=O)=O)cc1 [Example 80, {3-[2-(4-Methoxy-benzyl)-1,1-dioxo-1,2-dihydro-1λ^6-benzo[e][1,2,3]thiadiazin-4-yl]-5-fluoro-2-methyl-indol-1-yl}-acetic acid] | < 100 nM
Cc1c(C2=NN(Cc3ccccc3F)S(=O)(=O)c3ccccc32)c2cc(F)ccc2n1CC(=O)O [Example 81, {3-[2-(2-Fluoro-benzyl)-1,1-dioxo-1,2-dihydro-1λ^6-benzo[e][1,2,3]thiadiazin-4-yl]-5-fluoro-2-methyl-indol-1-yl}-acetic acid] | < 100 nM
Cc1c(C2=NN(Cc3cccc(F)c3)S(=O)(=O)c3ccccc32)c2cc(F)ccc2n1CC(=O)O [Example 82, {3-[2-(3-Fluoro-benzyl)-1,1-dioxo-1,2-dihydro-1λ^6-benzo[e][1,2,3]thiadiazin-4-yl]-5-fluoro-2-methyl-indol-1-yl}-acetic acid] | < 100 nM
